Measured values published in paper PMC2784226, “Degradation of Host Sphingomyelin Is Essential for Leishmania Virulence” (PLoS Pathogens, 2009).

Molecular target: T1, ScISC1 (Saccharomyces cerevisiae, UniProt P40015)
T1 construct: gene ISC1; full-length ORF expressed in L. major iscl- null mutant; whole cell lysate
Assay: TLC of NBD-ceramide, intact parasites and whole cell lysate
Assay type: cell-based
Settings: labelled compound; expressed in iscl- null mutant

T1 sequence (P40015 whole entry): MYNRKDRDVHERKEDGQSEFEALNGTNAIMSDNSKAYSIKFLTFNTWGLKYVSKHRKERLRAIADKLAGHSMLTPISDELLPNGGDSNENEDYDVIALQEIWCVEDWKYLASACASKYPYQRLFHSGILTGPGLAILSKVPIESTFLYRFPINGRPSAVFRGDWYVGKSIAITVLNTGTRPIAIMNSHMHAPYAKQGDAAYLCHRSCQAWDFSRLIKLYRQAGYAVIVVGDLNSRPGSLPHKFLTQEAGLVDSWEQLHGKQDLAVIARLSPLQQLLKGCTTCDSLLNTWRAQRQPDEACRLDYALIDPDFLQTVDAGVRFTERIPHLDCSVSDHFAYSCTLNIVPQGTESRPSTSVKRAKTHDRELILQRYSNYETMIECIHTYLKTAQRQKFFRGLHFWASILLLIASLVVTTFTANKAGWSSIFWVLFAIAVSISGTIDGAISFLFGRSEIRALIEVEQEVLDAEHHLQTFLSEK

CCCCCCCCCCCCC/C=C/[C@@H](O)[C@H](COP(=O)([O-])OCC[N+](C)(C)C)NC(=O)CCCCCNc1ccc([N+](=O)[O-])c2nonc12 [NBD C6-sphingomyelin, N-[6-[(7-nitro-2-1,3-benzoxadiazol-4-yl)amino]hexanoyl]-sphingosine-1-phosphocholine]
TLC of NBD-ceramide, intact parasites and whole cell lysate: expression of ScISC1 restored the ability to degrade sphingomyelin in iscl^−
